Measured values: PubChem BioAssay AID248 (DTP/NCI, 2004)
“And” between values parts separate entries of the source, which are not always exact repeats. Equal values may be shown once. Toxic doses and inconclusive results are not listed. Rule as the data show it: active = T/C of 150% or more; inactive = T/C below 125%.

Tested on: L1210 leukemia ip in BDF1 mice, survival T/C
Assay: NCI In Vivo Anticancer Drug Screen. Data for tumor model L1210 Leukemia (intraperitoneal) in B6D2F1 (BDF1) mice
Details: endpoint: mean survival time, higher = longer survival
How it was run: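 In this screen, tumor-bearing mice given compound are compared to those given vehicle, and their survival values are reported as a treated-to-control quotient.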

[1] = dose: 100.0 mg/kg/injection, schedule: Q01DX009 (ip), vehicle: Klucel (hydroxypropylcellulose) (HPC)
[2] = dose: 200.0 mg/kg/injection, schedule: Q01DX009 (ip), vehicle: Klucel (hydroxypropylcellulose) (HPC)

Measured: T/C

CC1=CC(=O)c2c(O)ccc(O)c2C1=O
inactive: dose: 2.5 mg/kg/injection, schedule: Q04DX003 (ip), vehicle: other 95 % of control | dose: 5.0 mg/kg/injection, schedule: Q01DX001 (ip), vehicle: saline 101 % of control | dose: 5.0 mg/kg/injection, schedule: Q04DX003 (ip), vehicle: other 103 % of control | dose: 10.0 mg/kg/injection, schedule: Q01DX001 (ip), vehicle: saline 97 % of control | dose: 10.0 mg/kg/injection, schedule: Q04DX003 (ip), vehicle: other 94 % of control | dose: 20.0 mg/kg/injection, schedule: Q01DX001 (ip), vehicle: saline 100 % of control | dose: 40.0 mg/kg/injection, schedule: Q01DX001 (ip), vehicle: saline 102 % of control

CC1=CC(=O)C=CC1(C)C(Cl)(Cl)Cl (stereo not drawn)
inactive: [1] 95 % of control | dose: 100.0 mg/kg/injection, schedule: Q04DX003 (ip), vehicle: other 100 % of control | [2] 91 % of control | dose: 200.0 mg/kg/injection, schedule: Q04DX003 (ip), vehicle: other 94 % of control | dose: 400.0 mg/kg/injection, schedule: Q04DX003 (ip), vehicle: other 101 % of control

CC1(C)SC2C(NC(=O)Cc3ccccc3)C(=O)N2C1C(=O)O (stereo not drawn)
inactive: dose: 50.0 mg/kg/injection, schedule: Q01DX001 (ip), vehicle: saline 104 % of control | dose: 100.0 mg/kg/injection, schedule: Q01DX001 (ip), vehicle: saline 98 % of control and 107 % of control | dose: 100.0 mg/kg/injection, schedule: Q04DX003 (ip), vehicle: saline 101 % of control | dose: 200.0 mg/kg/injection, schedule: Q01DX001 (ip), vehicle: saline 96 % of control and 107 % of control | dose: 200.0 mg/kg/injection, schedule: Q04DX003 (ip), vehicle: saline 104 % of control | dose: 400.0 mg/kg/injection, schedule: Q01DX001 (ip), vehicle: saline 98 % of control | dose: 400.0 mg/kg/injection, schedule: Q04DX003 (ip), vehicle: saline 104 % of control

CCN(CC)C(=O)C1CC=CCC1 (stereo not drawn)
inactive: dose: 100.0 mg/kg/injection, schedule: Q04DX002 (ip), vehicle: saline 96 % of control | dose: 200.0 mg/kg/injection, schedule: Q04DX002 (ip), vehicle: saline 107 % of control | dose: 400.0 mg/kg/injection, schedule: Q04DX002 (ip), vehicle: saline 93 % of control

CN(C)Cc1c[nH]c2c1S/C(=C/c1ccccc1)C2=O
inactive: dose: 100.0 mg/kg/injection, schedule: Q01DX001 (ip), vehicle: Klucel (hydroxypropylcellulose) (HPC) 105 % of control | dose: 200.0 mg/kg/injection, schedule: Q01DX001 (ip), vehicle: Klucel (hydroxypropylcellulose) (HPC) 96 % of control | dose: 400.0 mg/kg/injection, schedule: Q01DX001 (ip), vehicle: Klucel (hydroxypropylcellulose) (HPC) 100 % of control

O=C(C[n+]1ccccc1/C=N/O)c1ccccc1
inactive: dose: 12.5 mg/kg/injection, schedule: Q01DX009 (ip), vehicle: saline with Tween-80 101 % of control | dose: 25.0 mg/kg/injection, schedule: Q01DX009 (ip), vehicle: saline with Tween-80 99 % of control | dose: 50.0 mg/kg/injection, schedule: Q01DX009 (ip), vehicle: saline with Tween-80 101 % of control | dose: 75.0 mg/kg/injection, schedule: Q01DX001 (ip), vehicle: other 97 % of control

N#C/C(=C\c1cc(Br)cc(Br)c1O)c1ccc([N+](=O)[O-])cc1
inactive: dose: 100.0 mg/kg/injection, schedule: Q04DX003 (ip), vehicle: saline with Tween-80 97 % of control | dose: 200.0 mg/kg/injection, schedule: Q04DX003 (ip), vehicle: saline with Tween-80 87 % of control | dose: 400.0 mg/kg/injection, schedule: Q04DX003 (ip), vehicle: saline with Tween-80 102 % of control

Cc1ccc(S(=O)(=O)N/N=C\c2cc(Cl)ccc2O)cc1
inactive: [1] 105 % of control | dose: 100.0 mg/kg/injection, schedule: Q04DX003 (ip), vehicle: Klucel (hydroxypropylcellulose) (HPC) 100 % of control | [2] 100 % of control | dose: 200.0 mg/kg/injection, schedule: Q04DX003 (ip), vehicle: Klucel (hydroxypropylcellulose) (HPC) 103 % of control | dose: 400.0 mg/kg/injection, schedule: Q01DX009 (ip), vehicle: Klucel (hydroxypropylcellulose) (HPC) 103 % of control | dose: 400.0 mg/kg/injection, schedule: Q04DX003 (ip), vehicle: Klucel (hydroxypropylcellulose) (HPC) 100 % of control

Oc1ccc2c(c1)CCc1cn[nH]c1-2
inactive: dose: 100.0 mg/kg/injection, schedule: Q01DX001 (ip), vehicle: other 102 % of control | dose: 100.0 mg/kg/injection, schedule: Q01DX009 (ip), vehicle: other 98 % of control | dose: 200.0 mg/kg/injection, schedule: Q01DX001 (ip), vehicle: other 103 % of control | dose: 200.0 mg/kg/injection, schedule: Q01DX009 (ip), vehicle: other 96 % of control | dose: 400.0 mg/kg/injection, schedule: Q01DX001 (ip), vehicle: other 98 % of control | dose: 400.0 mg/kg/injection, schedule: Q01DX009 (ip), vehicle: other 94 % of control

NC(=O)Nc1ccccc1O
inactive: dose: 75.0 mg/kg/injection, schedule: Q04DX002 (ip), vehicle: saline with Tween-80 102 % of control | dose: 150.0 mg/kg/injection, schedule: Q04DX002 (ip), vehicle: saline with Tween-80 87 % of control | dose: 300.0 mg/kg/injection, schedule: Q04DX002 (ip), vehicle: saline with Tween-80 97 % of control

CC12CCC3c4ccc(Oc5ccccc5N)cc4CCC3C1CCC2=O (stereo not drawn)
inactive: dose: 100.0 mg/kg/injection, schedule: Q01DX001 (sc), vehicle: steriod suspending solution 101 % of control | dose: 200.0 mg/kg/injection, schedule: Q01DX001 (sc), vehicle: steriod suspending solution 95 % of control | dose: 400.0 mg/kg/injection, schedule: Q01DX001 (sc), vehicle: steriod suspending solution 89 % of control

Cc1nc(N)[nH]c(=O)c1CCCNc1ccc(/C=C/C2(CCl)OCCO2)cc1
inactive: dose: 50.0 mg/kg/injection, schedule: Q01DX Z (ip), vehicle: carboxymethylcellulose (CMC) 92 % of control | dose: 200.0 mg/kg/injection, schedule: Q01DX Z (ip), vehicle: carboxymethylcellulose (CMC) 97 % of control | dose: 400.0 mg/kg/injection, schedule: Q01DX Z (ip), vehicle: carboxymethylcellulose (CMC) 94 % of control
